In this assay the target is Dopamine receptor. Briefly: Inhibitory activity against constrictor response to electrical stimulation in the isolated perfused rabbit ear artery(REA) expressing dopamine receptor. More on the design: species or system Oryctolagus cuniculus.

Where only a bound is given, the exact number is not on record here.

The term EC50 denotes the concentration that produces a half-maximal response. As to `CCCN(CCC)CCc1cccc(NC(C)=O)c1`, the half-maximal effective concentration (EC50) is reported as > 1000 nM.

In turn, `CCCN(CCC)CCc1cccc(O)c1` had a concentration for a half-maximal effect (EC50) of 700 nM.
